# Results as given in ChEMBL document CHEMBL6103575, “Design, synthesis and evaluation of (E)-1-(4-(2-(1H-pyrazol-5-yl)vinyl)phenyl) derivatives as next generation selective RET inhibitors overcoming RET solvent front mutations (G810C/R)” (Eur J Med Chem, 2025).
# Legend:
# [1] = test system: BaF3; test: Antiproliferative activity against mouse BaF3 cells harbouring CCDC6-RET assessed as inhibition of cell proliferation incubated for 72 hrs by CCK-8 assay; assay type: functional, cell-based; conditions: BaF3, 72 h
# [2] = test system: BaF3; test: Antiproliferative activity against mouse BaF3 cells harbouring CCDC6-RET V804M mutant assessed as inhibition of cell proliferation incubated for 72 hrs by CCK-8 assay; assay type: functional, cell-based; conditions: BaF3, 72 h
# [3] = test system: BaF3; test: Antiproliferative activity against mouse BaF3 cells harbouring CCDC6-RET G810C mutant assessed as inhibition of cell proliferation incubated for 72 hrs by CCK-8 assay; assay type: functional, cell-based; conditions: BaF3, 72 h
# [4] = test system: BaF3; test: Antiproliferative activity against mouse BaF3 cells harbouring CCDC6-RET G810R mutant assessed as inhibition of cell proliferation incubated for 72 hrs by CCK-8 assay; assay type: functional, cell-based; conditions: BaF3, 72 h
# [5] = target: Kinesin-1 heavy chain/ Tyrosine-protein kinase receptor RET (Homo sapiens, UniProt P07949); test: Inhibition of wild type KIF5B-RET (unknown origin); assay type: protein assay
# Kinesin-1 heavy chain/ Tyrosine-protein kinase receptor RET, sequence (P07949 whole entry): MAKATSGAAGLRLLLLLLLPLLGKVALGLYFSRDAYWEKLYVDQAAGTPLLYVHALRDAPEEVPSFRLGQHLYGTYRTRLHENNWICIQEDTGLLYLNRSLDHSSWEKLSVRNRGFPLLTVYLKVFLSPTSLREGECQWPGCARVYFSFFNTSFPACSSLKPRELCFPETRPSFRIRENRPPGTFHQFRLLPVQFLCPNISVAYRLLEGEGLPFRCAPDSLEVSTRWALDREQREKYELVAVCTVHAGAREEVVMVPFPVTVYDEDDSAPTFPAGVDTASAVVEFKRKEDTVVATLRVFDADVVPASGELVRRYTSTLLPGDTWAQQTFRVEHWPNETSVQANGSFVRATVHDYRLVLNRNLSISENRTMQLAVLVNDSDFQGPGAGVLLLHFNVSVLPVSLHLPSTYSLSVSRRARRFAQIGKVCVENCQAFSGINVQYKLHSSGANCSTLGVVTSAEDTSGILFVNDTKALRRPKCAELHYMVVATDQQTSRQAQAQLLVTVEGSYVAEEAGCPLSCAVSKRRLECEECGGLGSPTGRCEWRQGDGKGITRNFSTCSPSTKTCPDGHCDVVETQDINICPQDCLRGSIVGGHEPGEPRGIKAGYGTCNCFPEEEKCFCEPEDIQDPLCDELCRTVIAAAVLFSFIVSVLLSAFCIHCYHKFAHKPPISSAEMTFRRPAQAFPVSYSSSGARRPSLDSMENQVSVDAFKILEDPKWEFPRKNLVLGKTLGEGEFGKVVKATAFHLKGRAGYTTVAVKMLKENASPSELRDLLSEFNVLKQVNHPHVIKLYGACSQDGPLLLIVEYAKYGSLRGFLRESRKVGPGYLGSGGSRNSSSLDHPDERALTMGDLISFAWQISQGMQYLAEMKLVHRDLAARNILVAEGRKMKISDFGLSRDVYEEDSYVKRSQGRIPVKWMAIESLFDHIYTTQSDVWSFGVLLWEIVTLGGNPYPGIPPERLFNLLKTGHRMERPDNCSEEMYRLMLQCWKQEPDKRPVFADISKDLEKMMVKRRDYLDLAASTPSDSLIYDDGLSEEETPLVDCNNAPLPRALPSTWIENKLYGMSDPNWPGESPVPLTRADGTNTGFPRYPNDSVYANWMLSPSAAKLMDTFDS
# Kinesin-1 heavy chain/ Tyrosine-protein kinase receptor RET, sequence (P33176 whole entry, further chain): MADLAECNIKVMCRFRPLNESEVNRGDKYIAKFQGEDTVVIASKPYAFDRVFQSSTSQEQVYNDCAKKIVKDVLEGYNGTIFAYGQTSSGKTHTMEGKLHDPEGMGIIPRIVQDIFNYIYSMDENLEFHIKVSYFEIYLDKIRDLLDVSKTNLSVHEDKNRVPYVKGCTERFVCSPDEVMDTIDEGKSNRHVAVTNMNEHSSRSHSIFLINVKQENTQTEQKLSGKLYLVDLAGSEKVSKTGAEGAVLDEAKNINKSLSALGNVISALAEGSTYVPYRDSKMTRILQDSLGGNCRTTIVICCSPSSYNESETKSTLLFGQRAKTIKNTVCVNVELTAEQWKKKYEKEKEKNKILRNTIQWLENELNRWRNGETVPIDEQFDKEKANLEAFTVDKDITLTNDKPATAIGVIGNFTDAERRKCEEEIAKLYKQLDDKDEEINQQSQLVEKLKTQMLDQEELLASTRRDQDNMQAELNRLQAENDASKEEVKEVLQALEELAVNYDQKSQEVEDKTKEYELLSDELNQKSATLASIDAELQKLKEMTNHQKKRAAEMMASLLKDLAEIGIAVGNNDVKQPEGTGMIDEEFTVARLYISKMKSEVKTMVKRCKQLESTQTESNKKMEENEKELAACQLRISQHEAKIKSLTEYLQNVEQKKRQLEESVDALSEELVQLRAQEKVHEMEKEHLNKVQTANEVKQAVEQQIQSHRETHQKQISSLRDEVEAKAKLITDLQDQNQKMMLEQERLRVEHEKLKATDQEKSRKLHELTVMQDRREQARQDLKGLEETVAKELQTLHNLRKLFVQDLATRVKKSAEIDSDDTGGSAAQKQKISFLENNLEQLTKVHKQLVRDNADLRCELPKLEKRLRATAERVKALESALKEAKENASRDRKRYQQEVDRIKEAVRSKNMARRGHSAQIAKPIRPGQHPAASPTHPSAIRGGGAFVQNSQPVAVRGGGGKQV
# [6] = target: Proto-oncogene tyrosine-protein kinase receptor Ret (Homo sapiens, UniProt P07949, G810R); test: Inhibition of RET G810R mutant (unknown origin)
# Proto-oncogene tyrosine-protein kinase receptor Ret (Homo sapiens, UniProt P07949, G810R), sequence (P07949 29-1114 G810R limits assumed): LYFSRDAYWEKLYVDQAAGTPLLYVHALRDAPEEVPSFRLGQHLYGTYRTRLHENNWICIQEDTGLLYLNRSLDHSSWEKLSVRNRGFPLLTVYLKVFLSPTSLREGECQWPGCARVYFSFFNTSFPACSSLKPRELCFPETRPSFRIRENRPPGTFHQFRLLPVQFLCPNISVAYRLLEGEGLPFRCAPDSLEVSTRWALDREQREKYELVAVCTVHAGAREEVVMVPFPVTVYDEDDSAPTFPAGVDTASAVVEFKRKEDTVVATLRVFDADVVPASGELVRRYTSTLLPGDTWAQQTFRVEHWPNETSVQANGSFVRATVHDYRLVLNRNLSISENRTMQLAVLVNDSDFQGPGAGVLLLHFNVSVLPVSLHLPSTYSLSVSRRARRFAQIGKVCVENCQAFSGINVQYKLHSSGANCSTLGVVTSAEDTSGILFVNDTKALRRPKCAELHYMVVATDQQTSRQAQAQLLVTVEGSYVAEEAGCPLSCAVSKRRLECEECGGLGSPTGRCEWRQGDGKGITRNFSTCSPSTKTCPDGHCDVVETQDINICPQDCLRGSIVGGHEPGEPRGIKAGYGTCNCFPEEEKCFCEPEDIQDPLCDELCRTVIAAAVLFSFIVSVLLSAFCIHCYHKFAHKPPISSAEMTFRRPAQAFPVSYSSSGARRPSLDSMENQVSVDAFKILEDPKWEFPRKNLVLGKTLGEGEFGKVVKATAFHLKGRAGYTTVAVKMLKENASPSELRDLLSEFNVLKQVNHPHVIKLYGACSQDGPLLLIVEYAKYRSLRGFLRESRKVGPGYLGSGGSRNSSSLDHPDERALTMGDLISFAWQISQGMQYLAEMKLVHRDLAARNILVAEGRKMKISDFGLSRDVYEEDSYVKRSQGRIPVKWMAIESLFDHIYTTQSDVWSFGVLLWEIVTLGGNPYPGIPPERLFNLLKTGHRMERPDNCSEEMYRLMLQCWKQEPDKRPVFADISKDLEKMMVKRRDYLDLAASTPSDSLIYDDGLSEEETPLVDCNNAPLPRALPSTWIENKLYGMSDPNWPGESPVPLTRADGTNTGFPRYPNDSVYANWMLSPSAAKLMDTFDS
# [7] = target: Proto-oncogene tyrosine-protein kinase receptor Ret (Homo sapiens, UniProt P07949, V804M); test: Inhibition of RET V804M mutant (unknown origin)
# Proto-oncogene tyrosine-protein kinase receptor Ret (Homo sapiens, UniProt P07949, V804M), sequence (P07949 29-1114 V804M limits assumed): as the sequence (P07949 29-1114 G810R limits assumed) above, with V776M, R782G counted along it
# [8] = test system: BaF3; test: Antiproliferative activity against mouse BaF3 cells harbouring CCDC6-RET V804M mutant assessed as inhibition of cell proliferation; assay type: functional, cell-based
# [9] = test system: BaF3; test: Antiproliferative activity against mouse BaF3 cells harbouring CCDC6-RET
# [10] = test system: BaF3; test: Antiproliferative activity against mouse BaF3 cells harbouring CCDC6-RET V804M mutant; assay type: functional, cell-based
# [11] = test system: BaF3; test: Antiproliferative activity against mouse BaF3 cells harbouring CCDC6-RET G810C mutant; assay type: functional, cell-based
# [12] = test system: BaF3; test: Antiproliferative activity against mouse BaF3 cells harbouring CCDC6-RET G810R mutant; assay type: functional, cell-based
# [13] = test system: BaF3; test: Antiproliferative activity against mouse BaF3 cells harbouring KIF5B-RET assessed as inhibition of cell proliferation; assay type: functional, cell-based
# [14] = test system: BaF3; test: Antiproliferative activity against mouse BaF3 cells harbouring KIF5B-RET G810C mutant assessed as inhibition of cell proliferation; assay type: functional, cell-based
# [15] = test system: BaF3; test: Antiproliferative activity against mouse BaF3 cells harbouring KIF5B-RET G810R mutant assessed as inhibition of cell proliferation; assay type: functional, cell-based
SMILES,IC50 [1],IC50 [2],IC50 [3],IC50 [4],other results
COc1ccc(-c2c[nH]nc2-c2ccc(NC(=O)Nc3cc(C(C)(C)C(F)(F)F)on3)cc2)cn1,435 nM,231 nM,363 nM,658 nM,–
COc1cncc(-c2cn[nH]c2/C=C/c2ccc(NC(=O)Nc3cc(C(C)(C)C(F)(F)F)on3)cc2)c1,46 nM,554 nM,46 nM,133 nM,–
CN1CCN(Cc2ccc(NC(=O)c3cncc(C#Cc4cnc(N)c5ncccc45)c3)cc2C(F)(F)F)CC1,–,–,–,–,IC50 [5]: 3.89 nM; IC50 [6]: 28.8 nM; IC50 [7]: 28.8 nM
COc1ccc(CN2[C@@H]3C[C@H]2CN(c2ccc(-c4cc(OCC(C)(C)O)cn5ncc(C#N)c45)cn2)C3)cn1,–,–,–,–,IC50 [8]: 26 nM
COc1cncc(-c2cn(C)nc2/C=C/c2ccc(NC(=O)Nc3cc(C(C)(C)C(F)(F)F)on3)cc2)c1,126 nM,719 nM,421 nM,1130 nM,–
CC(C)(c1cc(NC(=O)Nc2ccc(/C=C/c3[nH]ncc3-c3cncc(F)c3)cc2)no1)C(F)(F)F,147 nM,594 nM,42 nM,143 nM,–
COc1cncc(-c2cn[nH]c2/C=C/c2cccc(NC(=O)Nc3cc(C(C)(C)C(F)(F)F)on3)c2)c1,1060 nM,1810 nM,777 nM,2200 nM,–
CO[C@]1(C(=O)N[C@@H](C)c2ccc(-n3cc(F)cn3)nc2)CC[C@H](c2nc(C)cc(Nc3cc(C)[nH]n3)n2)CC1 [PRALSETINIB],3.9 nM,4.9 nM,104 nM,320 nM,IC50 [9]: 5 nM; IC50 [10]: 4.1 nM; IC50 [11]: 114 nM; IC50 [12]: 358 nM
COc1cncc(-c2cn[nH]c2/C=C/c2ccc(NC(=O)Nc3cc(C(C)(C)C(F)(F)F)on3)cc2C)c1,271 nM,632 nM,499 nM,471 nM,–
CNC(=O)c1cncc(-c2cn[nH]c2/C=C/c2ccc(NC(=O)Nc3cc(C(C)(C)C(F)(F)F)on3)cc2)c1,222 nM,3070 nM,737 nM,1210 nM,–
COc1cncc(-c2cnn(C)c2/C=C/c2ccc(NC(=O)Nc3cc(C(C)(C)C(F)(F)F)on3)cc2)c1,223 nM,1520 nM,641 nM,836 nM,–
COc1ccc(-c2cn[nH]c2/C=C/c2ccc(NC(=O)Nc3cc(C(C)(C)C(F)(F)F)on3)cc2)cn1,98.5 nM,2020 nM,117 nM,301 nM,–
COc1cncc(-c2cn[nH]c2/C=C/c2ccc(NC(=O)Nc3cc(C(C)(C)C(F)(F)F)on3)cc2OC)c1,133 nM,1050 nM,700 nM,443 nM,–
COc1cncc(-c2cn[nH]c2/C=C/c2ccc(NC(=O)Nc3cc(C(C)(C)C(F)(F)F)on3)cc2Cl)c1,108 nM,421 nM,309 nM,246 nM,–
COc1cc(-c2cn[nH]c2/C=C/c2ccc(NC(=O)Nc3cc(C(C)(C)C(F)(F)F)on3)cc2)ccn1,85.4 nM,1220 nM,121 nM,208 nM,–
COc1cncc(-c2cn[nH]c2/C=C/c2ccc(NC(=O)Nc3cc(C(C)(C)C(F)(F)F)on3)c(OC)c2)c1,210 nM,754 nM,404 nM,352 nM,–
COc1cncc(-c2c[nH]nc2/C=C\c2ccc(NC(=O)Nc3cc(C(C)(C)C(F)(F)F)on3)cc2)c1,406 nM,1780 nM,694 nM,812 nM,–
COc1cncc(-c2cn[nH]c2/C=C/c2ccc(NC(=O)Nc3cc(C(C)(C)C(F)(F)F)on3)c(C)c2)c1,13.1 nM,803 nM,26.4 nM,29.4 nM,–
CC(C)(c1cc(NC(=O)Nc2ccc(/C=C/c3[nH]ncc3-c3cncc(C#N)c3)cc2)no1)C(F)(F)F,175 nM,844 nM,205 nM,278 nM,–
COc1cncc(-c2cn[nH]c2/C=C/c2ccc(NC(=O)Nc3cc(C(C)(C)C(F)(F)F)on3)c(F)c2)c1,12.3 nM,564 nM,45.5 nM,22 nM,–
COC(=O)c1cncc(-c2cn[nH]c2/C=C/c2ccc(NC(=O)Nc3cc(C(C)(C)C(F)(F)F)on3)cc2)c1,89.4 nM,1020 nM,377 nM,428 nM,–
COc1cncc(-c2cn[nH]c2/C=C/c2ccc(NC(=O)Nc3cc(C(C)(C)C(F)(F)F)on3)cc2F)c1,127 nM,536 nM,173 nM,179 nM,–
COc1ccc(-c2cn[nH]c2CCc2ccc(NC(=O)Nc3cc(C(C)(C)C(F)(F)F)on3)cc2)cn1,790 nM,3610 nM,718 nM,1030 nM,–
C[C@H]1CNC(=O)c2cnn3cc4c(nc23)N(Cc2cc(F)cnc2O1)[C@@H]1CCC[C@@H]1O4 [ENBEZOTINIB],–,–,–,–,IC50 [13]: 1 nM; IC50 [14]: 1 nM; IC50 [15]: 1 nM
